This is an account of results in patent US8410106B2, “Hydrazine-substituted anthranilic acid derivatives” (Bayer Cropscience AG, priority 2010, dated 2013).

Read-outs that look alike come from different tables or passages of the source.

Data set [1] in a line: logP determination by HPLC on reversed-phase columns (C 18), EEC Directive 79/831 Annex V.A8. Format: physicochemical.
In data set [2] the test system is caterpillars of the army worm (Spodoptera frugiperda). Put plainly: Spodoptera frugiperda test (SPODFR spray treatment). The conditions noted are these: foliar, 168 h, read-out: activity (caterpillars killed). Format: in vivo.
The subject of data set [3] is green peach aphid (Myzus persicae). The data set is described as follows: Myzus test (MYZUPE spray treatment). The data set is classed as in vivo. Particulars: foliar, 144 h, read-out: activity (aphids killed). As to the method: (§1) After 6 days the activity is determined, in %.
In data set [4] the test system is larvae of the mustard beetle (Phaedon cochleariae). Put plainly: Phaedon test (PHAECO spray treatment). Particulars: in Brassica rapa, foliar, 168 h, read-out: activity (beetle larvae killed).
For data set [5], the system named is greenhouse red spidermite (Tetranychus urticae). The data set is described as follows: Tetranychus test, OP-resistant (TETRUR spray treatment). Format: in vivo. The conditions noted are these: after 6 days, bean leaf discs. As to the method:
as §1

Setting [6] is: HPLC, reversed-phase C 18, table value without method mark, read-out: logP.
Where [7] appears, read: application rate 100 g/ha, after 7 days, maize leaf discs, spray.
The mark [8] stands for this setting: application rate 100 g/ha, after 6 days, Chinese cabbage leaf discs, spray.

In data set [1], `COC(=O)N(C)NC(=O)c1cc(C#N)cc(C)c1NC(=O)c1cc(Cn2cc(C(F)(F)F)nn2)nn1-c1ncccc1Cl` [Example 47] showed a chromatographic logP of 2.3. Further, the pest or weed control at 100 g/ha in data set [2] (in Zea mays) was 100%; in data set [3] (in Brassica rapa) it was 90%; in data set [4], 100%.

As for `COC(=O)N(C)NC(=O)c1cc(Cl)cc(C)c1NC(=O)c1cc(Cn2cnc(C(F)(F)F)c2C(F)(F)F)nn1-c1ncccc1Cl` [Example 48], the chromatographic logP in data set [1] (setting [6]) was 3.08. Besides, the pest or weed control at 100 g/ha in data set [2] (setting [7]), in data set [3] (setting [8]) and in data set [4] was 100% in each case.

Consider `COC(=O)N(C)NC(=O)c1cc(I)cc(C)c1NC(=O)c1cc(Cn2cnc(C(F)(F)F)c2C(F)(F)F)nn1-c1ncccc1Cl` [Example 49], for which the chromatographic logP in data set [1] (setting [6]) was found to be 3.26. The pest or weed control at 100 g/ha in data set [2] (setting [7]), in data set [3] (setting [8]) and in data set [4] was 100% throughout.

In turn, `COC(=O)N(C)NC(=O)c1cc(Cl)cc(C)c1NC(=O)c1cc(Cn2nc(C(F)F)cc2C(F)F)nn1-c1ncccc1Cl` [Example 50] gave a chromatographic logP in data set [1] of 2.91. Besides, the pest or weed control at 100 g/ha in data set [2] (in Zea mays), in data set [3] (in Brassica rapa) and in data set [4] was 100% in each case.

`COC(=O)N(C)NC(=O)c1cc(I)cc(C)c1NC(=O)c1cc(Cn2nnc(C(F)(F)F)n2)nn1-c1ncccc1Cl` [Example 51] registered a chromatographic logP in data set [1] of 3.15. Moreover, the pest or weed control at 100 g/ha in data set [2] (in Zea mays), in data set [3] (in Brassica rapa) and in data set [4] was 100% in each case.

For the compound `COC(=O)N(C)NC(=O)c1cc(Cl)cc(C)c1NC(=O)c1cc(Cn2nnc(C(F)(F)C(F)(F)F)n2)nn1-c1ncccc1Cl` [Example 52], in data set [1], the chromatographic logP was 3.32. Besides, the pest or weed control at 100 g/ha in data set [2] (in Zea mays), in data set [3] (in Brassica rapa) and in data set [4] was 100% in each case.

With `COC(=O)N(C)NC(=O)c1cc(Br)cc(C)c1NC(=O)c1cc(Cn2nnc(C(F)(F)C(F)(F)F)n2)nn1-c1ncccc1Cl` [Example 53], the chromatographic logP in data set [1] was 3.4. The pest or weed control at 100 g/ha in data set [2] (in Zea mays), in data set [3] (in Brassica rapa) and in data set [4] was 100% each time.

In the case of `COC(=O)NNC(=O)c1cc(Cl)cc(C)c1NC(=O)c1cc(Cn2nnc(C(F)(F)C(F)(F)C(F)(F)F)n2)nn1-c1ncccc1Cl` [Example 54], the chromatographic logP in data set [1] (setting [6]) came to 3.41. Also, the pest or weed control at 100 g/ha in data set [2] (in Zea mays) was found to be 100%; in data set [3] (in Brassica rapa), 90%; in data set [4] it was 100%.

Regarding `COC(=O)N(C)NC(=O)c1cc(Cl)cc(C)c1NC(=O)c1cc(Cn2nnc(C(F)(F)F)n2)nn1-c1ncccc1C#N` [Example 59], the chromatographic logP in data set [1] (setting [6]) is 2.73. Also, in data set [5] (application rate 100 g/ha), the “activity (mites killed)” value is reported as 100%. The pest or weed control at 100 g/ha in data set [2] (setting [7]) and in data set [4] was 100% throughout.

Take `COC(=O)N(C)NC(=O)c1cc(C(F)(F)F)cc(C)c1NC(=O)c1cc(Cn2nnc(C(F)(F)F)n2)nn1-c1ncccc1Cl` [Example 60]: the chromatographic logP in data set [1] was determined as 3.17. The pest or weed control at 100 g/ha in data set [2] (in Zea mays), in data set [3] (in Brassica rapa) and in data set [4] was 100% throughout.

`COC(=O)N(C)NC(=O)c1cc(C(F)(F)F)cc(C)c1NC(=O)c1cc(Cn2nnc(C(F)(F)C(F)(F)F)n2)nn1-c1ncccc1Cl` [Example 61]: the chromatographic logP in data set [1] (setting [6]) was found to be 3.55. Besides, the pest or weed control at 100 g/ha was found to be 100% in data set [2] (setting [7]), 90% in data set [3] (setting [8]) and 100% in data set [4].

Turning to `COC(=O)N(C)NC(=O)c1cc(C#N)cc(C)c1NC(=O)c1cc(Cn2nc(C(F)F)cc2C(F)F)nn1-c1ncccc1Cl` [Example 63], in data set [1], the chromatographic logP worked out at 2.59. Further, the pest or weed control at 100 g/ha in data set [2] (in Zea mays), in data set [3] (in Brassica rapa) and in data set [4] was 100% in each case.

Compound `COC(=O)N(C)NC(=O)c1cc(Cl)cc(Cl)c1NC(=O)c1cc(Cn2nc(C(F)(F)F)cc2C)nn1-c1ncccc1Cl` [Example 66] gave a chromatographic logP in data set [1] of 3.1. The pest or weed control at 100 g/ha in data set [2] (in Zea mays), in data set [3] (in Brassica rapa) and in data set [4] was 100% in each case.

Turning to `COC(=O)N(C)NC(=O)c1cc(Cl)cc(Cl)c1NC(=O)c1cc(Cn2nc(OC)n(C)c2=O)nn1-c1ncccc1Cl` [Example 67], in data set [1], the chromatographic logP worked out at 1.9. Besides, the “activity (mites killed)” value in data set [5] (application rate 500 g/ha) amounted to 100%.

Consider `COC(=O)N(C)NC(=O)c1cc(Cl)cc(C)c1NC(=O)c1cc(Cn2nc(C(F)(F)C(F)(F)C(F)(F)F)cc2C)nn1-c1ncccc1Cl` [Example 68], for which the chromatographic logP in data set [1] (setting [6]) came to 3.82. Moreover, the pest or weed control at 100 g/ha in data set [2] (in Zea mays), in data set [3] (in Brassica rapa) and in data set [4] was 100% throughout.

`COC(=O)N(C)NC(=O)c1cc(I)cc(C)c1NC(=O)c1cc(Cn2cnc(C(F)(F)F)n2)nn1-c1ncccc1Cl` [Example 69] came in with a chromatographic logP in data set [1] of 2.71. In addition, the pest or weed control at 100 g/ha in data set [2] (in Zea mays), in data set [3] (in Brassica rapa) and in data set [4] was 100% each time.

As for `COC(=O)N(C)NC(=O)c1cc(I)cc(C)c1NC(=O)c1cc(Cn2nnnc2C(F)(F)F)nn1-c1ncccc1Cl` [Example 72], the chromatographic logP in data set [1] came to 2.78. The pest or weed control at 100 g/ha in data set [2] (in Zea mays), in data set [3] (in Brassica rapa) and in data set [4] was 100% in each case.

`COC(=O)N(C)NC(=O)c1cc(C#N)cc(C)c1NC(=O)c1cc(Cn2nnc(C(F)(F)C(F)(F)F)n2)nn1-c1ncccc1Cl` [Example 73]: the chromatographic logP in data set [1] (setting [6]) amounted to 2.97. For the same compound, the pest or weed control at 100 g/ha in data set [2] (setting [7]), in data set [3] (setting [8]) and in data set [4] was 100% each time.

As for `COC(=O)N(C)NC(=O)c1cc(I)cc(C)c1NC(=O)c1cc(Cn2nnc(C(F)F)n2)nn1-c1ncccc1Cl` [Example 74], the chromatographic logP in data set [1] stood at 2.64. The pest or weed control at 100 g/ha in data set [2] (in Zea mays), in data set [3] (in Brassica rapa) and in data set [4] was 100% in each case.

As for `COC(=O)N(C)NC(=O)c1cc(F)cc(C)c1NC(=O)c1cc(Cn2nnc(C(F)F)n2)nn1-c1ncccc1Cl` [Example 75], the chromatographic logP in data set [1] is 2.19. Besides, the pest or weed control at 100 g/ha in data set [2] (in Zea mays), in data set [3] (in Brassica rapa) and in data set [4] was 100% in each case.

As to `COC(=O)N(C)N(C)C(=O)c1cc(C#N)cc(C)c1NC(=O)c1cc(Cn2nnc(C(F)(C(F)(F)F)C(F)(F)F)n2)nn1-c1ncccc1Cl` [Example 79], in data set [1] (setting [6]), the chromatographic logP was 3.66. Further, the pest or weed control at 100 g/ha in data set [2] (setting [7]), in data set [3] (setting [8]) and in data set [4] was 100% throughout.

With `COC(=O)N(C)NC(=O)c1cc(I)cc(C)c1NC(=O)c1cc(Cn2nnc(C(F)(F)C(F)(F)C(F)(F)F)n2)nn1-c1ncccc1Cl` [Example 81], the chromatographic logP in data set [1] (setting [6]) was found to be 3.85. Further, the pest or weed control at 100 g/ha worked out at 100% in data set [2] (in Zea mays), 80% in data set [3] (in Brassica rapa) and 100% in data set [4].

Regarding `COC(=O)N(C)N(C)C(=O)c1cc(C#N)cc(C)c1NC(=O)c1cc(Cn2nnc(C(F)(F)C(F)(F)C(F)(F)F)n2)nn1-c1ncccc1Cl` [Example 82], the chromatographic logP in data set [1] (setting [6]) worked out at 3.67. The pest or weed control at 100 g/ha in data set [2] (in Zea mays), in data set [3] (in Brassica rapa) and in data set [4] was 100% throughout.

With `COC(=O)N(C)NC(=O)c1cc(Cl)cc(C)c1NC(=O)c1cc(Cn2nnc(C(F)(F)F)n2)nn1-c1ccccc1Cl` [Example 85], in data set [1] (setting [6]), the chromatographic logP was determined as 3.34. Further, the pest or weed control at 100 g/ha in data set [2] (setting [7]), in data set [3] (setting [8]) and in data set [4] was 100% throughout.
